# In PubChem BioAssay (NCI):
#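 Each compound was tested at five concentrations against cells in 96-well plates for 48 hours. At the TGI there is no net growth.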
# What was measured:
# Experiment in all cases: NCI tumour cell line growth inhibition, 48 h
# SK-MEL-5 melanoma = tested on: SK-MEL-5 melanoma
# RPMI-8226 leukemia = tested on: RPMI-8226 leukemia
# UACC-62 melanoma = tested on: UACC-62 melanoma
# SF-268 CNS = tested on: SF-268 CNS
# UO-31 renal = tested on: UO-31 renal
# CAKI-1 renal = tested on: CAKI-1 renal
# IGROV1 ovarian = tested on: IGROV1 ovarian
# DU-145 prostate = tested on: DU-145 prostate
# MDA-MB-231 breast = tested on: MDA-MB-231 breast
# SF-539 CNS = tested on: SF-539 CNS
# CCRF-CEM leukemia = tested on: CCRF-CEM leukemia
# COLO 205 colon = tested on: COLO 205 colon
# HS 578T breast = tested on: HS 578T breast
# U251 CNS = tested on: U251 CNS
# MALME-3M melanoma = tested on: MALME-3M melanoma
# MDA-N = tested on: MDA-N
# SN12C renal = tested on: SN12C renal
# LOX IMVI melanoma = tested on: LOX IMVI melanoma
# K-562 leukemia = tested on: K-562 leukemia
# SR leukemia = tested on: SR leukemia
# A549 NSCLC = tested on: A549 NSCLC
# UACC-257 melanoma = tested on: UACC-257 melanoma
# HCC-2998 colon = tested on: HCC-2998 colon
# MOLT-4 leukemia = tested on: MOLT-4 leukemia
# MDA-MB-435 = tested on: MDA-MB-435
# BT-549 breast = tested on: BT-549 breast
# SNB-75 CNS = tested on: SNB-75 CNS
# KM12 colon = tested on: KM12 colon
# RXF 393 renal = tested on: RXF 393 renal
# NCI-H23 lung = tested on: NCI-H23 lung
# HOP-62 NSCLC = tested on: HOP-62 NSCLC
# SNB-19 CNS = tested on: SNB-19 CNS
# OVCAR-5 ovarian = tested on: OVCAR-5 ovarian
# SK-MEL-28 melanoma = tested on: SK-MEL-28 melanoma
# SK-MEL-2 melanoma = tested on: SK-MEL-2 melanoma
# NCI-H226 lung = tested on: NCI-H226 lung
# NCI/ADR-RES ovarian = tested on: NCI/ADR-RES ovarian
# HCT-15 colon = tested on: HCT-15 colon
# 786-0 renal = tested on: 786-0 renal
# HT29 colon = tested on: HT29 colon
# SF-295 CNS = tested on: SF-295 CNS
# HOP-92 NSCLC = tested on: HOP-92 NSCLC
# M14 melanoma = tested on: M14 melanoma
# ACHN renal = tested on: ACHN renal
# SW-620 colon = tested on: SW-620 colon
# NCI-H522 lung = tested on: NCI-H522 lung
# NCI-H460 lung = tested on: NCI-H460 lung
# OVCAR-8 ovarian = tested on: OVCAR-8 ovarian
# EKVX NSCLC = tested on: EKVX NSCLC
# SK-OV-3 ovarian = tested on: SK-OV-3 ovarian
# MCF7 breast = tested on: MCF7 breast
# OVCAR-3 ovarian = tested on: OVCAR-3 ovarian
# PC-3 prostate = tested on: PC-3 prostate
# T-47D breast = tested on: T-47D breast
# HCT-116 colon = tested on: HCT-116 colon
# HL-60(TB) leukemia = tested on: HL-60(TB) leukemia
# OVCAR-4 ovarian = tested on: OVCAR-4 ovarian
# TK-10 renal = tested on: TK-10 renal
structure (smiles),measurement,setting,value
CC(=O)OCC1OC(NC(=S)CCSc2nc3ccccc3c(=O)n2-c2ccccc2)C(OC(C)=O)C(OC(C)=O)C1OC(C)=O (stereo not drawn),TGI,SK-MEL-5 melanoma,> 100 µM
same,TGI,RPMI-8226 leukemia,> 100 µM
same,TGI,UACC-62 melanoma,> 100 µM
same,TGI,SF-268 CNS,> 100 µM
same,TGI,UO-31 renal,> 100 µM
same,TGI,CAKI-1 renal,> 100 µM
same,TGI,IGROV1 ovarian,25.1 µM
same,TGI,DU-145 prostate,> 100 µM
same,TGI,MDA-MB-231 breast,> 100 µM
same,TGI,SF-539 CNS,34 µM
same,TGI,CCRF-CEM leukemia,> 100 µM
same,TGI,COLO 205 colon,> 100 µM
same,TGI,HS 578T breast,> 100 µM
same,TGI,U251 CNS,> 100 µM
same,TGI,MALME-3M melanoma,> 100 µM
same,TGI,MDA-N,> 100 µM
same,TGI,SN12C renal,> 100 µM
same,TGI,LOX IMVI melanoma,> 100 µM
same,TGI,K-562 leukemia,> 100 µM
same,TGI,SR leukemia,> 100 µM
same,TGI,A549 NSCLC,> 100 µM
same,TGI,UACC-257 melanoma,> 100 µM
same,TGI,HCC-2998 colon,> 100 µM
same,TGI,MOLT-4 leukemia,> 100 µM
same,TGI,MDA-MB-435,> 100 µM
same,TGI,BT-549 breast,> 100 µM
same,TGI,SNB-75 CNS,60.7 µM
same,TGI,KM12 colon,> 100 µM
same,TGI,RXF 393 renal,58.2 µM
same,TGI,NCI-H23 lung,> 100 µM
same,TGI,HOP-62 NSCLC,> 100 µM
same,TGI,SNB-19 CNS,> 100 µM
same,TGI,OVCAR-5 ovarian,> 100 µM
same,TGI,SK-MEL-28 melanoma,> 100 µM
same,TGI,SK-MEL-2 melanoma,76.3 µM
same,TGI,NCI-H226 lung,> 100 µM
same,TGI,NCI/ADR-RES ovarian,> 100 µM
same,TGI,HCT-15 colon,> 100 µM
same,TGI,786-0 renal,> 100 µM
same,TGI,HT29 colon,> 100 µM
same,TGI,SF-295 CNS,> 100 µM
same,TGI,HOP-92 NSCLC,98.1 µM
same,TGI,M14 melanoma,> 100 µM
same,TGI,ACHN renal,> 100 µM
same,TGI,SW-620 colon,> 100 µM
same,TGI,NCI-H522 lung,> 100 µM
same,TGI,NCI-H460 lung,> 100 µM
same,TGI,OVCAR-8 ovarian,> 100 µM
same,TGI,EKVX NSCLC,> 100 µM
same,TGI,SK-OV-3 ovarian,> 100 µM
same,TGI,MCF7 breast,> 100 µM
same,TGI,OVCAR-3 ovarian,> 100 µM
same,TGI,PC-3 prostate,> 100 µM
same,TGI,T-47D breast,> 100 µM
same,TGI,HCT-116 colon,> 100 µM
same,TGI,HL-60(TB) leukemia,88.1 µM
Cc1cc(O)c(C=NC(=S)C(N)=S)c(=O)o1,TGI,SK-MEL-5 melanoma,> 100 µM
same,TGI,RPMI-8226 leukemia,> 100 µM
same,TGI,UACC-62 melanoma,> 100 µM
same,TGI,SF-268 CNS,> 100 µM
same,TGI,UO-31 renal,> 100 µM
same,TGI,CAKI-1 renal,> 100 µM
same,TGI,IGROV1 ovarian,> 100 µM
same,TGI,DU-145 prostate,> 100 µM
same,TGI,OVCAR-4 ovarian,> 100 µM
same,TGI,MDA-MB-231 breast,> 100 µM
same,TGI,SF-539 CNS,> 100 µM
same,TGI,CCRF-CEM leukemia,> 100 µM
same,TGI,COLO 205 colon,> 100 µM
same,TGI,HS 578T breast,> 100 µM
same,TGI,U251 CNS,> 100 µM
same,TGI,MDA-N,> 100 µM
same,TGI,SN12C renal,> 100 µM
same,TGI,LOX IMVI melanoma,> 100 µM
same,TGI,K-562 leukemia,> 100 µM
same,TGI,SR leukemia,> 100 µM
same,TGI,A549 NSCLC,> 100 µM
same,TGI,UACC-257 melanoma,> 100 µM
same,TGI,HCC-2998 colon,> 100 µM
same,TGI,MOLT-4 leukemia,> 30.1 µM
same,TGI,MDA-MB-435,> 100 µM
same,TGI,BT-549 breast,> 100 µM
same,TGI,SNB-75 CNS,> 100 µM
same,TGI,KM12 colon,> 100 µM
same,TGI,RXF 393 renal,> 100 µM
same,TGI,NCI-H23 lung,> 100 µM
same,TGI,HOP-62 NSCLC,> 100 µM
same,TGI,SNB-19 CNS,> 100 µM
same,TGI,OVCAR-5 ovarian,> 100 µM
same,TGI,SK-MEL-28 melanoma,> 100 µM
same,TGI,TK-10 renal,> 100 µM
same,TGI,SK-MEL-2 melanoma,> 100 µM
same,TGI,NCI-H226 lung,> 100 µM
same,TGI,NCI/ADR-RES ovarian,> 100 µM
same,TGI,HCT-15 colon,> 100 µM
same,TGI,786-0 renal,> 100 µM
same,TGI,HT29 colon,> 100 µM
same,TGI,SF-295 CNS,> 100 µM
same,TGI,HOP-92 NSCLC,> 100 µM
same,TGI,M14 melanoma,> 100 µM
same,TGI,ACHN renal,> 100 µM
same,TGI,SW-620 colon,> 100 µM
same,TGI,NCI-H522 lung,> 100 µM
same,TGI,NCI-H460 lung,> 100 µM
same,TGI,OVCAR-8 ovarian,> 100 µM
same,TGI,EKVX NSCLC,> 100 µM
same,TGI,SK-OV-3 ovarian,> 100 µM
same,TGI,MCF7 breast,> 100 µM
same,TGI,OVCAR-3 ovarian,> 100 µM
same,TGI,PC-3 prostate,> 100 µM
same,TGI,T-47D breast,> 100 µM
same,TGI,HCT-116 colon,> 100 µM
same,TGI,HL-60(TB) leukemia,> 100 µM
Clc1ccc(C(c2ccc(Cl)cc2)c2cncnc2)cc1,TGI,SK-MEL-5 melanoma,25.9 µM
same,TGI,RPMI-8226 leukemia,> 100 µM
same,TGI,UACC-62 melanoma,28.7 µM
same,TGI,SF-268 CNS,33.8 µM
same,TGI,UO-31 renal,25.1 µM
same,TGI,CAKI-1 renal,39.7 µM
same,TGI,IGROV1 ovarian,33.8 µM
same,TGI,DU-145 prostate,31.3 µM
same,TGI,OVCAR-4 ovarian,29 µM
same,TGI,MDA-MB-231 breast,34 µM
same,TGI,CCRF-CEM leukemia,44.8 µM
same,TGI,COLO 205 colon,33.2 µM
same,TGI,HS 578T breast,39.9 µM
same,TGI,U251 CNS,32.1 µM
same,TGI,MALME-3M melanoma,36.1 µM
same,TGI,MDA-N,29.3 µM
same,TGI,SN12C renal,36.6 µM
same,TGI,LOX IMVI melanoma,31.2 µM
same,TGI,K-562 leukemia,> 100 µM
same,TGI,SR leukemia,> 100 µM
same,TGI,A549 NSCLC,38.5 µM
same,TGI,UACC-257 melanoma,49.1 µM
same,TGI,MOLT-4 leukemia,67.6 µM
same,TGI,MDA-MB-435,28 µM
same,TGI,BT-549 breast,27.4 µM
same,TGI,KM12 colon,37 µM
same,TGI,RXF 393 renal,25.2 µM
same,TGI,NCI-H23 lung,36.9 µM
same,TGI,HOP-62 NSCLC,31.3 µM
same,TGI,SNB-19 CNS,33 µM
same,TGI,OVCAR-5 ovarian,29.5 µM
same,TGI,SK-MEL-28 melanoma,33.4 µM
same,TGI,TK-10 renal,30.8 µM
same,TGI,NCI/ADR-RES ovarian,44.4 µM
same,TGI,HCT-15 colon,39.1 µM
same,TGI,786-0 renal,33 µM
same,TGI,HT29 colon,28.3 µM
same,TGI,SF-295 CNS,35.6 µM
same,TGI,M14 melanoma,30 µM
same,TGI,ACHN renal,36.4 µM
same,TGI,NCI-H522 lung,33.3 µM
same,TGI,NCI-H460 lung,31.4 µM
same,TGI,OVCAR-8 ovarian,42.5 µM
same,TGI,SK-OV-3 ovarian,33.4 µM
same,TGI,MCF7 breast,30 µM
same,TGI,OVCAR-3 ovarian,27.9 µM
same,TGI,PC-3 prostate,27.3 µM
same,TGI,T-47D breast,32.3 µM
same,TGI,HCT-116 colon,26.9 µM
same,TGI,HL-60(TB) leukemia,> 100 µM
